Measured values as given in the CheMixHub viscosity set.
Where “and” joins values, the source holds several entries; their conditions need not be identical. Equal values may be shown once.

Assay: xn = mol fraction of the nth substance listed

C=C(C)C(=O)OCCCCCCC + CCCCCC
viscosity [mPa·s], 101 kPa
Details | x1 = 0.002 | x1 = 0.005 | x1 = 0.01 | x1 = 0.02
303 K | 0.2814 | 0.2918 | 0.2946 | 0.3052
313 K | 0.2567 | 0.2692 | 0.2692 | 0.2801
323 K | 0.2346 | 0.2442 | 0.247 | 0.2568

c1ccc(Nc2ccccc2)cc1 + CCCCCC
viscosity
Details | 298.15 K | 303.15 K | 308.15 K | 313.15 K | 318.15 K
101 kPa, x1 = 0.0477 | 0.3866 mPa·s | 0.3675 mPa·s | 0.3515 mPa·s | 0.3325 mPa·s | 0.3164 mPa·s
101 kPa, x1 = 0.1451 | – | 0.5085 mPa·s | 0.4768 mPa·s | 0.4472 mPa·s | 0.4182 mPa·s
101.33 kPa, x1 = 0.03537 | – | 0.352 mPa·s | – | – | 0.3079 mPa·s
101.33 kPa, x1 = 0.04767 | – | 0.3675 mPa·s | – | – | 0.3164 mPa·s
101.33 kPa, x1 = 0.0477 | 0.3866 mPa·s | 0.3675 mPa·s | 0.3515 mPa·s | 0.3325 mPa·s | 0.3164 mPa·s
101.33 kPa, x1 = 0.05985 | – | 0.3824 mPa·s | – | – | 0.3288 mPa·s
101.33 kPa, x1 = 0.1451 | – | 0.5085 mPa·s and 0.5085 mPa·s | 0.4768 mPa·s | 0.4472 mPa·s | 0.4182 mPa·s and 0.4182 mPa·s
101.33 kPa, x1 = 0.3067 | – | 1.53 mPa·s | – | – | 0.7796 mPa·s

c1ccc(Nc2ccccc2)cc1 + CCCCCC(=O)O
323.15 K, 101.33 kPa
Details | viscosity [mPa·s]
x1 = 0.2111 | 2.271
x1 = 0.3983 | 2.789
x1 = 0.5972 | 3.497
x1 = 0.7957 | 4.496

CCCCCCCCCCCCO + CCCCCCC
viscosity [mPa·s], 101.33 kPa
Details | 298.15 K | 308.15 K
x1 = 0.0343 | 0.4411 | 0.3932
x1 = 0.0687 | 0.514 | 0.4523
x1 = 0.1389 | 0.7038 | 0.6054
x1 = 0.2173 | 0.9825 | 0.8279
x1 = 0.2965 | 1.372 | 1.126
x1 = 0.392 | 2.04 | 1.632
x1 = 0.4898 | 2.746 | 2.224
x1 = 0.5941 | 4.056 | 3.199
x1 = 0.7213 | 5.958 | 4.858
x1 = 0.7853 | 7.414 | 5.854
x1 = 0.8475 | 9.506 | 7.073
x1 = 0.9227 | 11.73 | 8.856

CC(C)CCCC(C)CCCC(C)CCCCC(C)CCCC(C)CCCC(C)C (centres undefined) + CCCCCCCC
viscosity [mPa·s], 100 kPa
Details | x1 = 0.238 | x1 = 0.492 | x1 = 0.709
293.15 K | 2.43 | 7.43 | 15.6
313.15 K | 1.6 | 4.27 | 7.68

CCCOC(=O)CCC + CCCCCCCCCC
298.15 K, 101.33 kPa
Details | viscosity [mPa·s]
x2 = 0.107 | 0.775
x2 = 0.1388 | 0.773
x2 = 0.1735 | 0.771
x2 = 0.2644 | 0.768
x2 = 0.3659 | 0.768
x2 = 0.4232 | 0.769
x2 = 0.5092 | 0.773
x2 = 0.6715 | 0.79
x2 = 0.7654 | 0.804
x2 = 0.8807 | 0.828
x2 = 0.9329 | 0.841

CCc1cccc(CC)c1 + CCCCCCCCCCCC
viscosity [mPa·s], 102 kPa
Details | x1 = 0.0991 | x1 = 0.2011 | x1 = 0.2996 | x1 = 0.4004 | x1 = 0.5006 | x1 = 0.5983 | x1 = 0.6998 | x1 = 0.7998 | x1 = 0.9001
293.15 K | 1.4 | 1.31 | 1.23 | 1.16 | 1.09 | 1.03 | 0.971 | 0.927 | 0.885
303.15 K | 1.18 | 1.11 | 1.05 | 1 | 0.94 | 0.9 | 0.852 | 0.811 | 0.778
313.15 K | 1.01 | 0.962 | 0.916 | 0.871 | 0.831 | 0.792 | 0.751 | 0.717 | 0.69
323.15 K | 0.886 | 0.843 | 0.806 | 0.768 | 0.735 | 0.703 | 0.67 | 0.642 | 0.618
